Source: patent US11725011B2, “Bicyclic urea kinase inhibitors and uses thereof” (The Broad Institute, Inc., priority 2016, dated 2023)

Assays:
TEC = TEC (Homo sapiens (Human), UniProt P42680); assay: KINOMEscan; type: binding; conditions: 1 uM
BMPR1B = BMPR1B (Homo sapiens (Human), UniProt O00238); assay: KINOMEscan; type: binding; conditions: 1 uM
LYN = LYN (Homo sapiens (Human), UniProt P07948); assay: KINOMEscan; type: binding; conditions: 1 uM
TAOK3 = TAOK3 (Homo sapiens (Human), UniProt Q9H2K8); assay: KINOMEscan; type: binding; conditions: 1 uM
FRK = FRK (Homo sapiens (Human), UniProt P42685); assay: KINOMEscan; type: binding; conditions: 1 uM
MET (M1250T) = MET (M1250T) (Homo sapiens (Human), UniProt P08581, M1250T); assay: KINOMEscan; type: binding; conditions: 1 uM
NEK9 = NEK9 (Homo sapiens (Human), UniProt Q8TD19); assay: KINOMEscan; type: binding; conditions: 1 uM
PIK3CA = PIK3CA (Homo sapiens (Human), UniProt P42336); assay: KINOMEscan; type: binding; conditions: 1 uM
ROCK1 = ROCK1 (Homo sapiens (Human), UniProt Q13464); assay: KINOMEscan; type: binding; conditions: 1 uM
PFPK5 (P. falciparum) = PFPK5 (P. falciparum) (Plasmodium falciparum (isolate 3D7), UniProt P61075); assay: KINOMEscan; type: binding; conditions: 1 uM
SNRK = SNRK (Homo sapiens (Human), UniProt Q9NRH2); assay: KINOMEscan; type: binding; conditions: 1 uM
CDK2 = CDK2 (Homo sapiens (Human), UniProt P24941); assay: KINOMEscan; type: binding; conditions: 1 uM
ABL2 = ABL2 (Homo sapiens (Human), UniProt P42684); assay: KINOMEscan; type: binding; conditions: 1 uM
ERBB4 = ERBB4 (Homo sapiens (Human), UniProt Q15303); assay: KINOMEscan; type: binding; conditions: 1 uM
DCAMKL1 = DCAMKL1 (Homo sapiens (Human), UniProt O15075); assay: KINOMEscan; type: binding; conditions: 1 uM
PDGFRA = PDGFRA (Homo sapiens (Human), UniProt P16234); assay: KINOMEscan; type: binding; conditions: 1 uM
MAP3K3 = MAP3K3 (Homo sapiens (Human), UniProt Q99759); assay: KINOMEscan; type: binding; conditions: 1 uM
PIM1 = PIM1 (Homo sapiens (Human), UniProt P11309); assay: KINOMEscan; type: binding; conditions: 1 uM
JNK1 = JNK1 (Homo sapiens (Human), UniProt P45983); assay: KINOMEscan; type: binding; conditions: 1 uM
EGFR (S752-I759del) = EGFR (S752-I759del) (Homo sapiens (Human), UniProt P00533, DEL752-759); assay: KINOMEscan; type: binding; conditions: 1 uM
KIT (A829P) = KIT (A829P) (Homo sapiens (Human), UniProt P10721, A829P); assay: KINOMEscan; type: binding; conditions: 1 uM
ACVR2A = ACVR2A (Homo sapiens (Human), UniProt P27037); assay: KINOMEscan; type: binding; conditions: 1 uM
EGFR (L858R, T790M) = EGFR (L858R, T790M) (Homo sapiens (Human), UniProt P00533, L858R/T790M); assay: KINOMEscan; type: binding; conditions: 1 uM
NEK2 = NEK2 (Homo sapiens (Human), UniProt P51955); assay: KINOMEscan; type: binding; conditions: 1 uM
PCTK3 = PCTK3 (Homo sapiens (Human), UniProt Q07002); assay: KINOMEscan; type: binding; conditions: 1 uM
MYO3B = MYO3B (Homo sapiens (Human), UniProt Q8WXR4); assay: KINOMEscan; type: binding; conditions: 1 uM
[1] = biological target: RSK1 (Kin.Dom.1-N-terminal) (Homo sapiens (Human), UniProt Q15418); assay: KINOMEscan; type: binding; conditions: 1 uM
[2] = biological target: ABL1 (H396P)-phosphorylated (Homo sapiens (Human), UniProt P00519, H396P); assay: KINOMEscan; type: binding; conditions: 1 uM
MYLK = MYLK (Homo sapiens (Human), UniProt Q15746); assay: KINOMEscan; type: binding; conditions: 1 uM
KIT = KIT (Homo sapiens (Human), UniProt P10721); assay: KINOMEscan; type: binding; conditions: 1 uM
MST3 = MST3 (Homo sapiens (Human), UniProt Q9Y6E0); assay: KINOMEscan; type: binding; conditions: 1 uM
YSK1 = YSK1 (Homo sapiens (Human), UniProt O00506); assay: KINOMEscan; type: binding; conditions: 1 uM
AKT1 = AKT1 (Homo sapiens (Human), UniProt P31749); assay: KINOMEscan; type: binding; conditions: 1 uM
DYRK1A = DYRK1A (Homo sapiens (Human), UniProt Q13627); assay: KINOMEscan; type: binding; conditions: 1 uM
RIOK2 = RIOK2 (Homo sapiens (Human), UniProt Q9BVS4); assay: KINOMEscan; type: binding; conditions: 1 uM
ABL1-nonphosphorylated = ABL1-nonphosphorylated (Homo sapiens (Human), UniProt P00519); assay: KINOMEscan; type: binding; conditions: 1 uM
SIK3 = SIK3 (Homo sapiens (Human), UniProt Q9Y2K2); assay: Percent activity against SIK3 at 1 μM; type: biochemical
PIP5K2C = PIP5K2C (Homo sapiens (Human), UniProt Q8TBX8); assay: KINOMEscan; type: binding; conditions: 1 uM
PKAC-alpha = PKAC-alpha (Homo sapiens (Human), UniProt P17612); assay: KINOMEscan; type: binding; conditions: 1 uM
CDKL1 = CDKL1 (Homo sapiens (Human), UniProt Q00532); assay: KINOMEscan; type: binding; conditions: 1 uM

Chain of SIK3 (Q9Y2K2 whole entry): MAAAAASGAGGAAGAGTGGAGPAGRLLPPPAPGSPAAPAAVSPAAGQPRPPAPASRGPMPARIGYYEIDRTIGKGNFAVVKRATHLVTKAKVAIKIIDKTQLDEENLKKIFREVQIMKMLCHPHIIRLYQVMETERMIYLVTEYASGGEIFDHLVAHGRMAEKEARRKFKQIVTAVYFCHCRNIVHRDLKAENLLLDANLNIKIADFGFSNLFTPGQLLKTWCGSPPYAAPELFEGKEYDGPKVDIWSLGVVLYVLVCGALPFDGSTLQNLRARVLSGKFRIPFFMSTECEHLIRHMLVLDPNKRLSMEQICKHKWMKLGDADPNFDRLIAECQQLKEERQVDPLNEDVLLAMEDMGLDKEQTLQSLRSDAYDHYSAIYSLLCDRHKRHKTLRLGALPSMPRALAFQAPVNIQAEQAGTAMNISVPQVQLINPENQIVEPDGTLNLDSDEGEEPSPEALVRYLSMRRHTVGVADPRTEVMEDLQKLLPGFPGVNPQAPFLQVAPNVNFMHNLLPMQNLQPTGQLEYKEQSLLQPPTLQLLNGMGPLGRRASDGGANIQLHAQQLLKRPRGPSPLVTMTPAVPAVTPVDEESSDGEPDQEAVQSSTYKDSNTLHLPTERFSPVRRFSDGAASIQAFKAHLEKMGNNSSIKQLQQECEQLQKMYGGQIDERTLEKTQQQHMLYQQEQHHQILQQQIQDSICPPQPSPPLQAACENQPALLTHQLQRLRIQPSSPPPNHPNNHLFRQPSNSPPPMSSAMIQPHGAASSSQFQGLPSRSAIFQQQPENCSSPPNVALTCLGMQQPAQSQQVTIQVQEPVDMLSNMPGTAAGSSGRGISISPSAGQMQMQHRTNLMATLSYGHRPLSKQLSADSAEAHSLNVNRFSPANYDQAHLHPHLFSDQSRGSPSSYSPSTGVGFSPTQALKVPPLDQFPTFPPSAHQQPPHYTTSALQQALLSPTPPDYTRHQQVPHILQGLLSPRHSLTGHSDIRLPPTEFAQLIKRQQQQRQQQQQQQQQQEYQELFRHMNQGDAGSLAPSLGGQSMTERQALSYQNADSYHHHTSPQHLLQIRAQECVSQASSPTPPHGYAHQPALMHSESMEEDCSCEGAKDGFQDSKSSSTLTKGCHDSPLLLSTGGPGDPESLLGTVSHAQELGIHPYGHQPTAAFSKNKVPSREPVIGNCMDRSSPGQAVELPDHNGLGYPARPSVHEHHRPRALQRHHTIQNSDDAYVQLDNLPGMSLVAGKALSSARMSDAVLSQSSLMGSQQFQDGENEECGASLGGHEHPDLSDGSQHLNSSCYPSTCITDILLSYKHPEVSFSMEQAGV
Chain of AKT1 (P31749 whole entry): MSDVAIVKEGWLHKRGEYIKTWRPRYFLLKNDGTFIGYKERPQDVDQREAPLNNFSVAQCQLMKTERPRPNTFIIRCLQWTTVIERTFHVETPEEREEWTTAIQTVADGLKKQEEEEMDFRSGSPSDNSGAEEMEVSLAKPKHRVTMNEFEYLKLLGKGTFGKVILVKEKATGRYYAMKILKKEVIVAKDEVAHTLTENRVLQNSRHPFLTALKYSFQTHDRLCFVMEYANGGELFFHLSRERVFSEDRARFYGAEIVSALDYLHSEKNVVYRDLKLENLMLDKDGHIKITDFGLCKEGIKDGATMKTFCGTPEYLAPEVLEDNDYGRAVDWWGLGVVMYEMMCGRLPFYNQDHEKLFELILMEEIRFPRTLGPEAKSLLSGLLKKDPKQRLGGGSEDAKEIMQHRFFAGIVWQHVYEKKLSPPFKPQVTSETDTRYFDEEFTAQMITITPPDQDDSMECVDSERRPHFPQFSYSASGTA
Chain of PCTK3 (Q07002 whole entry): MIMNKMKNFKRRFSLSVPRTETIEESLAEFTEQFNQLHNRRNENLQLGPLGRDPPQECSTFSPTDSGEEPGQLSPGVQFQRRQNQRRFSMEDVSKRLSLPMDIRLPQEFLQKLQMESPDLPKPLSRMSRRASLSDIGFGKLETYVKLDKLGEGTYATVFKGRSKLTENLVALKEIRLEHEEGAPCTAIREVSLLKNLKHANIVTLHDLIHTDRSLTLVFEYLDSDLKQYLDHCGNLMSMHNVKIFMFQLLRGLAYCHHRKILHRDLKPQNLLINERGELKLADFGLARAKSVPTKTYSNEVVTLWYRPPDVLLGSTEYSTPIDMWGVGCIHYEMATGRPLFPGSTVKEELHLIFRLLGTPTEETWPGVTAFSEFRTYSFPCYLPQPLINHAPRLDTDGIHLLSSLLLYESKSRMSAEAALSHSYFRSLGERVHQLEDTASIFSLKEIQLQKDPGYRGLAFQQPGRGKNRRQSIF
Chain of TAOK3 (Q9H2K8 whole entry): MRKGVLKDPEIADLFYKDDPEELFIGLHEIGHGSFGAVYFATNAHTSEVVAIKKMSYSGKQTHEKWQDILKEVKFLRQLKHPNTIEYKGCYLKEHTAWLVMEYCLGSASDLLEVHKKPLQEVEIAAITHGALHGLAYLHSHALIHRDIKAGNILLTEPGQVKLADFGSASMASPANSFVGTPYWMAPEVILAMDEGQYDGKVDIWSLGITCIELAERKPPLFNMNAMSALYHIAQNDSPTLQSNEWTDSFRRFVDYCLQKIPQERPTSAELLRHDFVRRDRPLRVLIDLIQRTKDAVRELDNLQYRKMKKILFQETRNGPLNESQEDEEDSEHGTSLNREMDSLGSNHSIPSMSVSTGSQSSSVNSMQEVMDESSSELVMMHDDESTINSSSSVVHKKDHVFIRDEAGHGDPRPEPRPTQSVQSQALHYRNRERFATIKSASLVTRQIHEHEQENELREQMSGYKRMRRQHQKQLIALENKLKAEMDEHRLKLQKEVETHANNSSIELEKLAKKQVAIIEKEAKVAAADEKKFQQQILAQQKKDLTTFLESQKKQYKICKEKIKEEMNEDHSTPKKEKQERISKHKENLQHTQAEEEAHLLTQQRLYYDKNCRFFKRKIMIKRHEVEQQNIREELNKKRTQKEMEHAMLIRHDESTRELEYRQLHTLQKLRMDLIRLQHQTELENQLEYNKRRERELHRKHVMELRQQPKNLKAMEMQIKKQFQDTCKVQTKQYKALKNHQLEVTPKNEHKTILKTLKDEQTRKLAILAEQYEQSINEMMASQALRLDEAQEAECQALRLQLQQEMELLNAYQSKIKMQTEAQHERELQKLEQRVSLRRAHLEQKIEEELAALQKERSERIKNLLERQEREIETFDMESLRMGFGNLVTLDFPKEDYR
Chain of YSK1 (O00506 whole entry): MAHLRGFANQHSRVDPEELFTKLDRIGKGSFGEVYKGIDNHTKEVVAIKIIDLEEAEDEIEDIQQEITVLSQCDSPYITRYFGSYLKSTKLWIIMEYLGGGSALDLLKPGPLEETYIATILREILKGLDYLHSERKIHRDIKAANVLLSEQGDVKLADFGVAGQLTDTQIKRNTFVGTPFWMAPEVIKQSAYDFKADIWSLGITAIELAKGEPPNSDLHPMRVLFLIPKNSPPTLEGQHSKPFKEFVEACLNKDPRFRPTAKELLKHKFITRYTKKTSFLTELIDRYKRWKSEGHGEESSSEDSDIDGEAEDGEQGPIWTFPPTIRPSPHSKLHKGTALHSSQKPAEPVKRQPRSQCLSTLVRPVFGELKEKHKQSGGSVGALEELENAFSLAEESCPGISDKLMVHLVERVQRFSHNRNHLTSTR
Chain of PIK3CA (P42336 whole entry): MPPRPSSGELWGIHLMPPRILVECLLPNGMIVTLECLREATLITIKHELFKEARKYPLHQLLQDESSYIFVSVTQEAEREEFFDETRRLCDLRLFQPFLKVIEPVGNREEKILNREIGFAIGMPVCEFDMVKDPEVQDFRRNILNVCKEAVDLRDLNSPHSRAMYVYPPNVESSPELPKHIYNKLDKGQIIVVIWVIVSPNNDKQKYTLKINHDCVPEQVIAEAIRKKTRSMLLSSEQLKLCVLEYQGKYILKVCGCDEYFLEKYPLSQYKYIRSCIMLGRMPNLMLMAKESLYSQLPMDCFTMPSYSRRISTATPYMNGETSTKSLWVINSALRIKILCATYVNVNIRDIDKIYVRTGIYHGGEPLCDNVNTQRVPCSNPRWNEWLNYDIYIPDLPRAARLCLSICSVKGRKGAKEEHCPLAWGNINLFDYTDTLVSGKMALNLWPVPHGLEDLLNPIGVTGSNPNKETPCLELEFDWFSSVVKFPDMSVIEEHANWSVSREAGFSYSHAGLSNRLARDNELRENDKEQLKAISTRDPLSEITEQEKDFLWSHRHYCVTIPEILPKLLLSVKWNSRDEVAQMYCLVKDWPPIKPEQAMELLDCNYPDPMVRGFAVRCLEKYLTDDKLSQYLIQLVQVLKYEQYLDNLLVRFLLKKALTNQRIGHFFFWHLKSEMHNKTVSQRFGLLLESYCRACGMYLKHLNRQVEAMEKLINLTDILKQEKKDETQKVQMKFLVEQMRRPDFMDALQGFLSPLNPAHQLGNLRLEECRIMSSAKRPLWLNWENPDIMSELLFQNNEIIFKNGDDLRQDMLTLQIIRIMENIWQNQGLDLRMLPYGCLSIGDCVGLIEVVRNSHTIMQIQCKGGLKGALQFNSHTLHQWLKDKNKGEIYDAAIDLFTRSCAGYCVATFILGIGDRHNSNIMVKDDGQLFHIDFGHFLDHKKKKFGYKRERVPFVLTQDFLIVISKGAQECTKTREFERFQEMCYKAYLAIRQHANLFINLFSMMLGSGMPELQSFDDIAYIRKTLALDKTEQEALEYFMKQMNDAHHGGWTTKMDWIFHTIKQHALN
Chain of RSK1 (Kin.Dom.1-N-terminal) (Q15418 62-321): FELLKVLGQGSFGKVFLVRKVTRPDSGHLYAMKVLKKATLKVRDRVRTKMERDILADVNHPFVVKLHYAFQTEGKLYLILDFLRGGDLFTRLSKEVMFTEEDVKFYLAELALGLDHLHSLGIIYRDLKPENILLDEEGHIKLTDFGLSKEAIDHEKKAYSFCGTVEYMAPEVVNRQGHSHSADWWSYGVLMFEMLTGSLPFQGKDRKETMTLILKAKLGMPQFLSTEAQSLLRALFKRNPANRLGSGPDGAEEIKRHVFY

Structure (SMILES): COc1ccc(N2C(=O)N(c3c(C)cccc3C)Cc3cnc(Nc4ccc(N5CCN(C)CC5)cc4)nc32)c(OC)c1 [HG-11-136-01]
- KINOMEscan TEC (TEC): 2.6
- KINOMEscan BMPR1B (BMPR1B): 0
- KINOMEscan LYN (LYN): 0
- KINOMEscan TAOK3 (TAOK3): 1.8
- KINOMEscan FRK (FRK): 0.05
- KINOMEscan MET (M1250T) (MET (M1250T)): 46
- KINOMEscan NEK9 (NEK9): 81
- KINOMEscan PIK3CA (PIK3CA): 100
- KINOMEscan ROCK1 (ROCK1): 81
- KINOMEscan PFPK5 (P. falciparum) (PFPK5 (P. falciparum)): 96
- KINOMEscan SNRK (SNRK): 91
- KINOMEscan CDK2 (CDK2): 97
- KINOMEscan ABL2 (ABL2): 0.35
- KINOMEscan ERBB4 (ERBB4): 0.2
- KINOMEscan DCAMKL1 (DCAMKL1): 51
- KINOMEscan PDGFRA (PDGFRA): 0.5
- KINOMEscan MAP3K3 (MAP3K3): 0.1
- KINOMEscan PIM1 (PIM1): 100
- KINOMEscan JNK1 (JNK1): 23
- KINOMEscan EGFR (S752-I759del) (EGFR (S752-I759del)): 4.2
- KINOMEscan KIT (A829P) (KIT (A829P)): 3.6
- KINOMEscan ACVR2A (ACVR2A): 5
- KINOMEscan EGFR (L858R, T790M) (EGFR (L858R, T790M)): 1.7
- KINOMEscan NEK2 (NEK2): 75
- KINOMEscan PCTK3 (PCTK3): 100
- KINOMEscan MYO3B (MYO3B): 29
- KINOMEscan RSK1 (Kin.Dom.1-N-terminal) [1]: 48
- KINOMEscan ABL1 (H396P)-phosphorylated [2]: 0
- KINOMEscan MYLK (MYLK): 86
- KINOMEscan KIT (KIT): 0
- KINOMEscan MST3 (MST3): 4.6
- KINOMEscan YSK1 (YSK1): 19
- KINOMEscan AKT1 (AKT1): 100
- KINOMEscan DYRK1A (DYRK1A): 30
- KINOMEscan RIOK2 (RIOK2): 87
- KINOMEscan ABL1-nonphosphorylated (ABL1-nonphosphorylated): 0
- Enzyme activity at 1 μM (%) SIK3 (SIK3; 1 μM): 9%
- SIK3 % ACTIVITY (SIK3; compound at 1 μM, approximate Km for ATP): 9%
- KINOMEscan PIP5K2C (PIP5K2C): 100
- KINOMEscan PKAC-alpha (PKAC-alpha): 85
- KINOMEscan CDKL1 (CDKL1): 84
